From ChEMBL document CHEMBL1201862, “PubChem BioAssay data set” (2004)
The source made the active and inactive calls.

Assays:
[1] = molecular target: T1, Cysteine protease ATG4B (Homo sapiens, UniProt Q9Y4P1); assay type: functional;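 note: Fluorescence-based dose-response confirmation assay measuring inhibition of ATG4B activity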
T1 sequence (Q9Y4P1 whole entry): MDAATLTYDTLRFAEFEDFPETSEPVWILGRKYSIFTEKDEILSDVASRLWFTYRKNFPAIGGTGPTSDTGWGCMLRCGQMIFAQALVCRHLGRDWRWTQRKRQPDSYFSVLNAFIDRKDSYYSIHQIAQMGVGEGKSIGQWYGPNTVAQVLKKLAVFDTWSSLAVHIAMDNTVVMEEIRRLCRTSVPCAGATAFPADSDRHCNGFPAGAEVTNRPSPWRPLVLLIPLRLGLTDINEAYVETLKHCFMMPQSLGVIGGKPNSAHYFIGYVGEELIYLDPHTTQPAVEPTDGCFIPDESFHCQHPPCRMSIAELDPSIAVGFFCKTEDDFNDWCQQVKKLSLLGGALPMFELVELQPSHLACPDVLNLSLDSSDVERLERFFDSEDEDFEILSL

[2] = molecular target: Phospholipase A2 (Homo sapiens, UniProt P04054); assay type: functional;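 note: confirmatory dose-response counterscreen on phospholipase A2, testing hits that came from an ultra-high-throughput screen for ATG4B inhibitors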
[3] = microbe, parasite or virus in culture; assay type: functional; details: Mycobacterium tuberculosis
[4] = molecular target: T2, Endoribonuclease toxin MazF (Escherichia coli K-12, UniProt P0AE70); experiment: MazF toxin RNase activators, dose response, biochemical, fluorescence, single-stranded RNA substrate, uHTS hits (AID 588481); assay type: functional
T2 sequence (P0AE70 whole entry): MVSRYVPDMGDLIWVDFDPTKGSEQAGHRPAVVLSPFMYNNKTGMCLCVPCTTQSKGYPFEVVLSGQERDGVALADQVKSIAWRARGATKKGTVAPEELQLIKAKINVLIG

[5] = molecular target: T2, Endoribonuclease toxin MazF; experiment: fluorescent RNA oligo signal without MazF, dose response, counter-screen for MazEF activator project, biochemical, fluorescence, single-stranded RNase substrate (AID 588502); assay type: functional
[6] = molecular target: T3, Sentrin-specific protease 1 (Homo sapiens, UniProt Q9P0U3); experiment: potency of human SENP1 inhibitors, dose response, biochemical, kinetic FRET (AID 651697); assay type: functional; details: read-out: IC50_Mean
T3 sequence (Q9P0U3 whole entry): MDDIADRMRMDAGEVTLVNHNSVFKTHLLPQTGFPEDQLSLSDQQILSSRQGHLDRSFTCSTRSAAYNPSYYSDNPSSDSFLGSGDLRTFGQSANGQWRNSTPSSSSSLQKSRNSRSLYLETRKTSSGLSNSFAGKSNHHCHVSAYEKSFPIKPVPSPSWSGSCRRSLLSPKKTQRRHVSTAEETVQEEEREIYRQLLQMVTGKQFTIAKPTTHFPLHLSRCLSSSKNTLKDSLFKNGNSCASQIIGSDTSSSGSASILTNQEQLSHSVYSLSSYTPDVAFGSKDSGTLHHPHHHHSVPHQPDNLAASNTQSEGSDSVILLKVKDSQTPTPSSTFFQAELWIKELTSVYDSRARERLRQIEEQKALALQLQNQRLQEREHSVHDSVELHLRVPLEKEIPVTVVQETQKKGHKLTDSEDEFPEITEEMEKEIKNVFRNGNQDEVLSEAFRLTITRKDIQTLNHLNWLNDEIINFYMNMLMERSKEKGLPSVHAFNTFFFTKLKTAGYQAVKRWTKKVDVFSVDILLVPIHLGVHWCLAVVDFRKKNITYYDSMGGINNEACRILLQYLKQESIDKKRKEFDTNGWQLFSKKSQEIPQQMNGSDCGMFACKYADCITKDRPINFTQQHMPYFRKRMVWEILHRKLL

[7] = molecular target: T3, Sentrin-specific protease 1; experiment: Dose response confirmation of small molecule inhibitors of the catalytic domain of the SUMO protease, SENP1 in a FRET assay.; assay type: functional; details: read-out: IC50_Mean
[8] = molecular target: 26S proteasome non-ATPase regulatory subunit 14 (Homo sapiens, UniProt O00487); experiment: inhibition of proteasome subunit RPN11 – biochemical, fluorescence polarization, uHTS hits, confirmation (AID 602368); assay type: functional
[9] = molecular target: 72 kDa type IV collagenase (Homo sapiens, UniProt P08253); experiment: Dose Response validation of uHTS RPN11 inhibitor hits using a MMP-2 Fluorescence assay.; assay type: functional
[10] = molecular target: Prothrombin (Bos taurus, UniProt P00735); experiment: thrombin inhibition, dose response, biochemical, fluorescence polarization, uHTS hits (AID 602369); assay type: functional
[11] = tested on: A-375; experiment: MITF: Counter assay: A375 proliferation Measured in Cell-Based System Using Plate Reader - 2084-03_Inhibitor_Dose_DryPowder_Activity. [Related pubchem assays (depositor defined):AID488944]; assay type: functional; details: Homo sapiens
[12] = tested on: A-375; experiment: A375 melanoma cell viability reduction, dose response, counter-screen for MITF modulator project, cherry-pick samples, set 2 (AID 540335); assay type: functional, cell-based; details: Homo sapiens
[13] = molecular target: T4, RNA-binding protein pos-1 (Caenorhabditis elegans, UniProt G5EF15); experiment: inhibitors of POS-1/mex-3 RNA binding, dose response, biochemical, fluorescence polarization (AID 1964);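 note: purified POS-1 fused to maltose binding protein made in E. coli; potency of compounds blocking POS-1 binding to fluorescent RNA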
T4 sequence (G5EF15 whole entry): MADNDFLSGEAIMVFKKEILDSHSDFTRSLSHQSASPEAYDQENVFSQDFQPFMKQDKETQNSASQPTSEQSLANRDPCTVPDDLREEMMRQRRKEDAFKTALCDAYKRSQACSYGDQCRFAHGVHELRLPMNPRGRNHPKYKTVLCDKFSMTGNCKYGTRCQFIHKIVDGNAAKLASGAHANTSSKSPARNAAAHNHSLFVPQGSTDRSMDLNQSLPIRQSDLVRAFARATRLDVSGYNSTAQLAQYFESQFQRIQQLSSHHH

[14] = molecular target: T5, Zinc finger protein mex-5 (Caenorhabditis elegans, UniProt Q9XUB2); experiment: MEX-5/TCR-2 RNA interaction inhibitors, dose response, biochemical, C. elegans, fluorescence polarization (AID 1960)
T5 sequence (Q9XUB2 whole entry): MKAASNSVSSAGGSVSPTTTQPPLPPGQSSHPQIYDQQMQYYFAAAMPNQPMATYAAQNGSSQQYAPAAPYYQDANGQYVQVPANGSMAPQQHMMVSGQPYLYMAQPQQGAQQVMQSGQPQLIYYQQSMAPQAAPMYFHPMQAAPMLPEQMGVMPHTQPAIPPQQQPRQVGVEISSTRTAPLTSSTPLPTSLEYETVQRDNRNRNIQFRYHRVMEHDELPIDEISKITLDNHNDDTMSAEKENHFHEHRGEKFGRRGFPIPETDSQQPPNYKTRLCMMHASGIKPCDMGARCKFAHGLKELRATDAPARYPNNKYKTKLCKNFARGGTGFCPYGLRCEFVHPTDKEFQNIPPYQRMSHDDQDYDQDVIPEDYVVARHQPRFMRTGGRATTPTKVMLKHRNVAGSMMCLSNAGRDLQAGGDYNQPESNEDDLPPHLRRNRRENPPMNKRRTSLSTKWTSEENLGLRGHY

[15] = molecular target: T6, Galanin receptor type 3 (Homo sapiens, UniProt O60755); experiment: Fluorescence-based cell-based primary high throughput dose response assay to identify antagonists of the Galanin Receptor 3 (GalR3).; assay type: functional
T6 sequence (O60755 whole entry): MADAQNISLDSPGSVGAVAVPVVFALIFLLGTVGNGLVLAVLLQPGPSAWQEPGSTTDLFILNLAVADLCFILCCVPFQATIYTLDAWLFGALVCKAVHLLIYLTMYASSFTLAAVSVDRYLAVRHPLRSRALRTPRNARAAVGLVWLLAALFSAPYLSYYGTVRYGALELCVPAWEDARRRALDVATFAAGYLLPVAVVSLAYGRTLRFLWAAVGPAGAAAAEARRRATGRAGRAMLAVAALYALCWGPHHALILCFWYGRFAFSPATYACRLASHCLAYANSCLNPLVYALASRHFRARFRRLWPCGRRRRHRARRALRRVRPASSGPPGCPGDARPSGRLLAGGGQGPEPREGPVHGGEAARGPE

[16] = cells; assay type: functional, cell-based; details: HEK-CNG
[17] = inhibitors of HIV Env-driven cell fusion, dose response, cherry-pick (AID 652057); assay type: functional, cell-based
[18] = ZM109 Env clade C HIV-1 fusion inhibitors, dose response, HeLa effector, CEM target cells, luciferase, cherry-pick (AID 652058); assay type: functional, cell-based
[19] = off-target signal loss in HeLa-CEM21 co-culture – HeLa F-luc CTL cells, cherry-picked, counter-screen for HIV-1 Env fusion inhibitor project, dose response (AID 652040); assay type: functional, cell-based;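 note: potency for signal decrease marking cytotoxic or nonspecific inhibition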
[20] = inhibitors of clade B AD8 Env fusion, dose response, cell-based, cherry-pick (AID 652062); assay type: functional;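 note: luciferase signal from cell-cell fusion driven by HIV-1 clade B AD8 Env; potency is for inhibitors of fusion seen as a drop in luminescence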
[21] = molecular target: T7, Small ubiquitin-related modifier 1 (Homo sapiens, UniProt P63165); experiment: inhibitors of SUMO1 peptide binding, dose response, biochemical, fluorescence polarization, uHTS hits (AID 624382); assay type: functional; details: read-out: IC50_Mean
[22] = molecular target: T7, Small ubiquitin-related modifier 1; experiment: inhibitors of SUMO1 partner interactions, dose response, biochemical, FRET (AID 624383); assay type: functional; details: read-out: IC50_Mean
[23] = growth suppression of PTEN-null colon cells, dose response, cell-based, HCT116 PTEN knockout (AID 1047); assay type: functional;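 note: HCT116 colon tumor cells with PTEN knocked out; cells exposed to compound for 60 hours before readout; potency for loss of cell viability measured by luminescence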
[24] = growth suppression of beta-catenin-knockout colon cells, dose response, cell-based, HCT116, human colon tumor (AID 1045); assay type: functional;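 note: HCT116 colon tumor cells with beta catenin knocked out; cells exposed to compound for 60 hours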
[25] = Luminescence Cell-Based Dose Retest to Confirm Inhibitors of Cancer Stem Cells. [Related pubchem assays (depositor defined):AID2717, AID2721]; assay type: functional; details: Homo sapiens
[26] = cells; assay type: functional
[27] = tested on: BJ; experiment: cytotoxicity toward BJ-TERT fibroblasts, dose response, cell-based, RAS-independent, luminescence (AID 1933); assay type: functional; details: Homo sapiens
[28] = tested on: BJ; experiment: cells; assay type: functional, cell-based; details: Homo sapiens
[29] = tested on: BJ; experiment: cytotoxicity toward BJ-TERT-LT-ST fibroblasts, dose response, cell-based, RAS-independent, luminescence (AID 1935); assay type: functional; details: Homo sapiens;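 note: BJ fibroblasts immortalized with TERT plus LT and ST oncogenes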
[30] = cytotoxicity toward DRD oncogenic fibroblasts, dose response, cell-based, non-viral oncogenic, luminescence (AID 1934); assay type: functional; details: Homo sapiens
[31] = tested on: INS1; experiment: beta cell apoptosis inhibitors, cytokine rescue, dose response, luminescence, retest (AID 449756); assay type: functional, cell-based; details: Rattus norvegicus;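 note: cell death triggered by IL-1 beta plus TNF-alpha plus IFN-gamma mixture; protective hits raise ATP signal compared with cytokine alone wells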

Sequence of Phospholipase A2 (P04054 whole entry): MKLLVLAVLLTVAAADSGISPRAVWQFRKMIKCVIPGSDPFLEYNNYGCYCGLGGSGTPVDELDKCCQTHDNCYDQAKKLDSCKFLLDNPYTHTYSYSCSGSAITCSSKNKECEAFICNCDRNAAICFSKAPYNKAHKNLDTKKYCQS
T7 sequence (P63165 whole entry): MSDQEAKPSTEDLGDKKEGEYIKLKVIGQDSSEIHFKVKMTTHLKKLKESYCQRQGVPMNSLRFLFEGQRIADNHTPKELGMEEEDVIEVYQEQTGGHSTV
Sequence of 72 kDa type IV collagenase (P08253 whole entry): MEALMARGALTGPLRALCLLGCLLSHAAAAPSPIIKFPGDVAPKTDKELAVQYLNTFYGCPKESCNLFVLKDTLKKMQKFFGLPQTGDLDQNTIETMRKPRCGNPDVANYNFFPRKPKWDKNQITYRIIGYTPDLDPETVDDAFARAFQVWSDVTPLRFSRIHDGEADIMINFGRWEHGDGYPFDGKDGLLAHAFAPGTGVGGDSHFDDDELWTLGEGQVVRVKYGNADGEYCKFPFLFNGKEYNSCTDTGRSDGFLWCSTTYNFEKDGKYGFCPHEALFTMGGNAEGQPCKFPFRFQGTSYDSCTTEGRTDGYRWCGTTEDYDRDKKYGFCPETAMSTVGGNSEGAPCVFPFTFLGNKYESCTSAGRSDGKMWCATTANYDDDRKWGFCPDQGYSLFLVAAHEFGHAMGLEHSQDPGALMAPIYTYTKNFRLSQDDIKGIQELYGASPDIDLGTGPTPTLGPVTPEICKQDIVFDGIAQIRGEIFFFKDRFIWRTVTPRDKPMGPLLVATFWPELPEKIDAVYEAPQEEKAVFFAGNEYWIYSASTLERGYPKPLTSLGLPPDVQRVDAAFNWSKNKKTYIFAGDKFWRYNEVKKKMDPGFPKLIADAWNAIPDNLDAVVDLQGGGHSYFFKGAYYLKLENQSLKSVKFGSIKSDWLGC
Sequence of 26S proteasome non-ATPase regulatory subunit 14 (O00487 whole entry): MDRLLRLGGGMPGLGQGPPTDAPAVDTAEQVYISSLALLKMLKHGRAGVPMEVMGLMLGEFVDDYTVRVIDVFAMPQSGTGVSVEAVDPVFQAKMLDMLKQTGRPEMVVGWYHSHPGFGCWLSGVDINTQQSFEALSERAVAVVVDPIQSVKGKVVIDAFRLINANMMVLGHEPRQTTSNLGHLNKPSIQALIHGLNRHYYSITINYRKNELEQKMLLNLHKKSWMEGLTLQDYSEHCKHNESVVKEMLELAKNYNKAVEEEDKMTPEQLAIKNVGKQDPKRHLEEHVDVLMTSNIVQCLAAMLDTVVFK

CCCc1ccc(OC(=O)c2cccs2)cc1
IC50 [1]: 10.7 µM (active) | IC50 [2]: 10.2 µM (active)

Clc1ccccc1CN1CCN(c2ccccc2Cl)CC1
IC50 [1]: 11.5 µM (active) | IC50 [2]: 6.52 µM (active)

c1cc(Nc2cccc3nccnc23)c2nccnc2c1
CC50 [3]: 31.7 µM (active) | EC50 [4]: > 99 µM (inactive) | EC50 [5]: > 99 µM (inactive) | IC50 [6]: 25.6 µM (inactive) | IC50 [7]: 24.5 µM (inactive)

CC1=Nc2ccccc2/C1=C\c1nc(-c2ccccc2)oc1O
IC50 [8]: 4.18 µM (active) | IC50 [9]: > 100 µM (inactive) | IC50 [10]: 7.22 µM (active)

CC(C)C(NC(=O)OCc1ccccc1)C(=O)OCC(=O)N1CCCCC1 (stereo unspecified)
AC50 [11]: > 35 µM (active) | AC50 [12]: > 35 µM (active)

Cc1cc(/C=C(/C#N)c2nc3ccccc3[nH]2)c(C)n1-c1ccccc1C(=O)O
EC50 [13]: > 300 µM (not active) | EC50 [14]: > 300 µM (not active) | IC50 [8]: 26.2 µM (active) | IC50 [9]: > 100 µM (inactive) | IC50 [10]: 25.5 µM (active)

CC(C)Cn1c(N)c(C(=O)COC(=O)/C=C/c2ccccc2)c(=O)n(C)c1=O
IC50 [15]: > 29.9 µM (inactive) | EC50 [16]: > 29.9 µM (inactive)

O=C1C=C(c2cccc(Cl)c2O)C[C@@H](c2ccc(Cl)cc2)C1
IC50 [6]: 2.66 µM (active) | IC50 [7]: 1.15 µM (active)

CC[C@@]1(C(=O)OC)N[C@H](CN(C)C(=O)c2ccc(C(C)(C)C)cc2)[C@@H]2C(=O)N(Cc3ccccc3)C(=O)[C@@H]21
AC50 [17]: 6.06 µM (active) | AC50 [18]: 8.17 µM (active) | AC50 [19]: 18.3 µM (active) | AC50 [20]: 10.1 µM (active)

CCOC(=O)C1=C(COc2ccccc2)NC(=O)NC1c1ccc(Cl)cc1 (stereo unspecified)
IC50 [21]: > 66.6 µM (inactive) | IC50 [22]: 15.7 µM (active)

C=C(C)Cn1c(SCC(=O)N/N=C/c2c(O)ccc3ccccc23)nc2ccccc2c1=O
EC50 [23]: 19.5 µM (active) | EC50 [24]: 16.6 µM (active) | AC50 [25]: 3.05 µM (active) | IC50 [1]: 13.3 µM (active) | IC50 [2]: 7.98 µM (active)

O=C(N/N=C/C=C/c1ccccc1)c1ccccn1
IC50 [26]: 11.2 µM (active) | AC50 [11]: > 35 µM (active) | AC50 [12]: > 35 µM (active)

CC(C)(C)c1cc([N+](=O)[O-])cc(C(C)(C)C)c1O
EC50 [27]: > 150 µM (not active) | EC50 [28]: > 150 µM (inconclusive) | EC50 [29]: > 75 µM (inconclusive) | EC50 [30]: 22 µM (active) | AC50 [31]: 4.45 µM (active) | IC50 [15]: 2 µM (active) | EC50 [16]: > 29.9 µM (inactive)

O=C(CSc1nc2ccccc2c(=O)n1-c1ccc(Cl)cc1)N/N=C/C=C/c1ccccc1[N+](=O)[O-]
IC50 [1]: 8.92 µM (active) | IC50 [2]: 1.18 µM (active)
